What was measured:
[1] = test system: respiratory syncytial virus (RSV); assay: RSV plaque (PFU) assay, sample added to Vero cells simultaneously with RSV (Example 6); type: cell-based
Procedure: The ability of purified sulfated octasaccharide, in solution, to block respiratory syncytial virus (RSV) infection of Vero cells was examined. The blocking ability of purified sulfated octasaccharide was compared to heparin sodium.
Purified sulfated octasaccharide was prepared according to the method of Example 1. Vero cells were seeded into 24-well plates and incubated at 37° C. for 24 hours to form monolayers. Samples were diluted to the desired concentration in sterile DMEM in a final volume of 225 μl. Full-length heparin sodium (the starting material) or purified HSocta was added to Vero cells simultaneously with RSV that was diluted to 300 PFU/mL then incubated at 37° C. for 30 min. Vero cells were washed with PBS and samples were incubated at 37° C. for 1 hour on Vero cells and then washed with PBS and incubated with DMEM containing 10% FBS and incubated at 37° C. for 72 h. Cells were fixed and stained with anti-glycoprotein F and anti-glycoprotein G antibodies (MAB858-2 and MAB8262F Millipore, Billerica, Mass.). Plaques were visualized with anti-mouse horseradish peroxidase-conjugated secondary antibody (BD Biosciences, San Jose, Calif.) and developed with peroxidase substrate kit (Vector Laboratories, Burlingame, Calif.). Viral plaques in the Vero monolayer were counted and the PFU/mL was determined.

[2] = test system: RSV strain A2; assay: RSV plaque assay on Vero cell monolayers, sample pre-mixed with RSV strain A2 (Example 7); type: cell-based, respiratory syncytial virus; settings: in solution; Vero cells; 200 PFU RSV strain A2, 30 min at 37° C. pre-mix; read-out: concentration achieving a 50% reduction in RSV infectivity
Procedure: The ability of liposomes to block RSV infection of Vero cells was examined. The blocking ability of liposomes was compared to purified sulfated octasaccharide, in solution, and a control, i.e., a liposome without sulfated octasaccharides. Liposomes were prepared using the method described in Example 3. […] Purified sulfated octasaccharide as described in Example 1, in solution or incorporated into liposomes, at the concentrations indicated were assessed using a plaque assay. Confluent Vero cell monolayers were formed by adding 1×10^6 Vero cells to wells of a 12-well plate then incubating the cells in 1 ml Dulbecco's Modified Eagle Medium (DMEM) with 4 mM glutamine and 10% fetal bovine serum as growth medium. The medium was removed from the cells. Sulfated octasaccharide, liposomes, or buffer at the concentrations indicated (see FIG. 5) were mixed with 200 PFU RSV strain A2 in 150 mM phosphate buffered saline for 30 min at 37° C. and the mixture was added to the monolayer surface. After one hour, the mixtures were removed, and the cells were washed and overlaid with 1 ml plaquing medium (DMEM with 4 mM glutamine, 2% FBS, and 0.4% agarose). After 5 to 7 days incubation at 37° C., the number of RSV plaques was counted. Liposome treated virus was compared to untreated virus, which represented 100% infectivity.

GlcUA(2S)-GlcNS(6S)-Ido(2S)-GlcNS(6S)-Ido(2S)-GlcNS(6S)-Ido(2S)-GlcNS(6S) [purified sulfated octasaccharide]
blocking PFU formation ([1]; at 1 μg/ml or higher, RSV, Vero cells (results text says MDCK cells)): roughly 50% | anti-RSV properties, ability to block infection of cells ([1]; in solution, results text says MDCK cells): strong anti-RSV properties | IC50 [2]: ~500 µM

Source: patent US20150158956A1, “MULTIVALENT ANTIVIRAL COMPOSITIONS, METHODS OF MAKING, AND USES THEREOF” (The Charles Stark Draper Laboratory, Inc., priority 2013, published 2015)
